Laboratory results from US10342867B2 (priority 2014, dated 2019).

What was measured:
[1] = rabbit, in vivo
[2] = rabbit, in vivo; remark: listed apart in the source
[3] = rabbit, in vivo; remark: listed apart in the source
[4] = rabbit, in vivo; remark: listed apart in the source
[5] = rabbit, in vivo; remark: listed apart in the source

Substance | Reactogenicity 1 week post immunization 2, GMS [1] | Reactogenicity 1 week post immunization 2, antilog [1] | Reactogenicity 4 weeks post immunization 1, GMS [1] | Reactogenicity 4 weeks post immunization 1, antilog [1] | Increase in body temperature one day post immunization 1, mean [2] [°C] | Increase in body temperature two days post immunization 1, mean [2] [°C] | increases in body temperature in comparison to the corresponding POLY counterpart [2] | Body weight gain one week post immunization 1, mean [3] [g] | Body weight gain two weeks post immunization 1, mean [3] [g] | Number of animals demonstrating a detectable adverse local reaction four weeks after the first immunization [4] | Number of animals demonstrating a detectable adverse local reaction one week after the second immunization [4] | Body temperature one day after the first immunization, Mean [5] [°C] | Body temperature one day after the second immunization, Mean [5] [°C]
Monosulphate heptadecylmaltose [M10-MONO] | 1.34 | 22 | 1.26 | 18 | 0.5 | 0.1 | lower increases | 35 | 49 | 0/6 | 0/6 | 38.9 | 39.2
maltose decanoic acid polysulphate ester [M10-POLY] | 3.37 | – | 1.73 | 53 | 0.7 | 0.5 | – | 38 | 53 | – | – | – | –
Monosulphate tetradodecyl galactose [G12-MONO] | – | – | – | – | – | – | – | – | – | 1/6 (discoloration, loss | 1/6 (granuloma) | 39.1 | 39.3
Monosulphate heptadodecylmaltose [M12-MONO] | – | – | – | – | – | – | – | – | – | 0/6 | 0/6 | 39.0 | 39.2
